Source: PMC8695447, “Novel Small Molecules Capable of Blocking mtRAS-Signaling Pathway” (Frontiers in Oncology, 2021)

Key:
U937 (KRAS, NRAS-wt) = experiment: Anti-proliferation assay on U937; assay type: cell-based; details: 72 h treatment, average with SD (n = 3, duplicate)
Protocol: (§1) Ba/F3-parental, OCI-AML3, U397 cells were purchased from DSMZ. MDA-MB-231, HCT-116, AsPC-1, H358, HT-29, SW480, and DU-145 cells were obtained from KCLB. MDA-MB-468 cells were obtained from ATCC. All cells were maintained in RPMI with 10% FBS and antibiotics. Cells were grown in a humidified 5% CO2 incubator at 37°C. Ba/F3-parental cells were grown in the presence of 10 ng/ml IL-3. NRAS-G12D or NRAS-G12V transformed Ba/F3 cell lines (Ba/F3-NRAS-G12D, and Ba/F3-NRAS-G12V, respectively) were cultured without IL-3, which were established by the procedure described as previously ([30]).
(§2) Approximately 3.0 × 10^3 cells/well were seeded in a 96-well cell culture plate. After stabilization, 1/3 serially diluted compound in DMSO was treated to the cell. […] All GI50 values were obtained in duplicate with three independent assays and averages with standard deviation are presented.

HCT-116 (KRAS-G13D) = experiment: Anti-proliferation assay on HCT-116; assay type: cell-based; details: 72 h treatment, average with SD (n = 3, duplicate)
Protocol: as §1, §2

OCI-AML3 (NRAS-Q61L) = experiment: Anti-proliferation assay on OCI-AML3; assay type: cell-based, human; details: 72 h treatment, average with SD (n = 3, duplicate)
Protocol: as §1, §2

Ba/F3-NRAS-G12V cells = experiment: Anti-proliferation assay (CellTiter Glo) on Ba/F3-NRAS-G12V; assay type: cell-based; details: 72 h treatment, average with SD (n = 3, duplicate)
Protocol: as §1, §2

HT-29 (KRAS-Q61L) = experiment: Anti-proliferation assay on HT-29; assay type: cell-based; details: 72 h treatment, average with SD (n = 3, duplicate)
Protocol: as §1, §2

DU-145 (KRAS-G12V) = experiment: Anti-proliferation assay on DU-145; assay type: cell-based; details: 72 h treatment, average with SD (n = 3, duplicate)
Protocol: as §1, §2

[1] = system: MDA-MB-468 (KRAS, NRAS-wt); experiment: Anti-proliferation assay on MDA-MB-468; assay type: cell-based; details: 72 h treatment, average with SD (n = 3, duplicate)
Protocol: as §1, §2

Ba/F3-parental cells = experiment: Anti-proliferation assay (CellTiter Glo) on Ba/F3-parental; assay type: cell-based; details: 72 h treatment, with 10 ng/ml IL-3, average with SD (n = 3, duplicate)
Protocol: as §1, §2

Ba/F3-NRAS-G12D cells = experiment: Anti-proliferation assay (CellTiter Glo) on Ba/F3-NRAS-G12D; assay type: cell-based; details: 72 h treatment, average with SD (n = 3, duplicate)
Protocol: as §1, §2

AsPC-1 (KRAS-G12D) = experiment: Anti-proliferation assay on AsPC-1; assay type: cell-based; details: 72 h treatment, average with SD (n = 3, duplicate)
Protocol: as §1, §2

MDA-MB-231 (KRAS-G13D) = experiment: Anti-proliferation assay on MDA-MB-231; assay type: cell-based; details: 72 h treatment, average with SD (n = 3, duplicate)
Protocol: as §1, §2

H358 (KRAS-G12C) = experiment: Anti-proliferation assay on H358; assay type: cell-based; details: 72 h treatment, average with SD (n = 3, duplicate)
Protocol: as §1, §2

SW480 (KRAS-G12V) = experiment: Anti-proliferation assay on SW480; assay type: cell-based; details: 72 h treatment, average with SD (n = 3, duplicate)
Protocol: as §1, §2

SMILES	GI50 (U937 (KRAS, NRAS-wt); Homo sapiens, U-937) [nM]	GI50 (HCT-116 (KRAS-G13D); Homo sapiens, HCT-116) [nM]	GI50 (OCI-AML3 (NRAS-Q61L); Homo sapiens, OCI-AML-3) [nM]	GI50 (Ba/F3-NRAS-G12V cells; Mus musculus, BaF3) [nM]	GI50 (HT-29 (KRAS-Q61L); Homo sapiens, HT-29) [nM]	GI50 (DU-145 (KRAS-G12V); Homo sapiens, DU-145) [nM]	GI50 ([1]; Homo sapiens, MDA-MB-468) [µM]	GI50 (Ba/F3-parental cells; Mus musculus, BaF3) [nM]	GI50 (Ba/F3-NRAS-G12D cells; Mus musculus, BaF3) [nM]	GI50 (AsPC-1 (KRAS-G12D); Homo sapiens, ASPC1) [nM]	GI50 (MDA-MB-231 (KRAS-G13D); Homo sapiens, MDA-MB-231) [nM]	GI50 (H358 (KRAS-G12C); Homo sapiens, NCI-H358) [nM]	GI50 (SW480 (KRAS-G12V); Homo sapiens, SW480) [nM]	other results
COCCn1cc(Nc2ncc3c(n2)N(C)C(=O)N(c2cc(NC(=O)c4cccc(C(F)(F)F)c4)ccc2C)C3)cn1 [Compound 12, N-(3-(7-((1-(2-Methoxyethyl)-1H-pyrazol-4-yl)amino)-1-methyl-2-oxo-1,4-dihydropyrimido[4,5-d]pyrimidin-3(2H)-yl)-4-methylphenyl)-3-(trifluoromethyl)benzamide]	934 ± 57	66 ± 55	46 ± 16	216 ± 5	131 ± 4	34 ± 25	> 50	1160 ± 424	122 ± 1	275 ± 47	71 ± 18	106 ± 12	532 ± 150	–
Cc1ccc(Nc2ncc3c(n2)N(C)C(=O)N(c2cc(NC(=O)c4cccc(C(F)(F)F)c4)ccc2C)C3)cn1 [GNF-7, reference compound]	–	–	–	–	–	–	–	–	–	–	–	–	–	GI50 (U937 (KRAS, NRAS-wt)): 4780 ± 926 nM; GI50 (HCT-116 (KRAS-G13D)): 169 ± 61 nM; GI50 (OCI-AML3 (NRAS-Q61L)): 229 ± 10 nM; GI50 (Ba/F3-NRAS-G12V cells): 396 ± 36 nM; GI50 (HT-29 (KRAS-Q61L)): 938 ± 34 nM; GI50 (DU-145 (KRAS-G12V)): 288 ± 57 nM; GI50 [1]: > 50 µM; GI50 (Ba/F3-parental cells): 923 ± 59 nM; GI50 (Ba/F3-NRAS-G12D cells): 250 ± 26 nM; GI50 (AsPC-1 (KRAS-G12D)): 448 ± 27 nM; GI50 (MDA-MB-231 (KRAS-G13D)): 296 ± 39 nM; GI50 (H358 (KRAS-G12C)): 922 ± 93 nM; GI50 (SW480 (KRAS-G12V)): 760 ± 63 nM
Cc1ccc(Nc2ncc3c(n2)N(C)C(=O)N(c2cc(NC(=O)c4cccc(C(F)(F)F)c4)ccc2C)C3)c(C)n1 [Compound 6, N-(3-(7-((2,6-Dimethylpyridin-3-yl)amino)-1-methyl-2-oxo-1,4-dihydropyrimido[4,5-d]pyrimidin-3(2H)-yl)-4-methylphenyl)-3-(trifluoromethyl)benzamide]	2870 ± 142	1530 ± 390	374 ± 24	428 ± 161	3250 ± 176	1170 ± 124	> 50	1470 ± 317	569 ± 28	3170 ± 244	646 ± 68	2060 ± 1130	2050 ± 51	–
Cc1ccc(NC(=O)c2cccc(C(F)(F)F)c2)cc1N1Cc2cnc(NCCCN3CCOCC3)nc2N(C)C1=O [Compound 5, N-(4-Methyl-3-(1-methyl-7-((3-morpholinopropyl)amino)-2-oxo-1,4-dihydropyrimido[4,5-d]pyrimidin-3(2H)-yl)phenyl)-3-(trifluoromethyl)benzamide]	4720 ± 488	2540 ± 1810	538 ± 162	351 ± 34	3120 ± 460	1880 ± 125	> 50	5730 ± 148	457 ± 141	4160 ± 2170	1110 ± 127	5140 ± 368	6440 ± 264	–
Cc1ccc(NC(=O)c2cccc(C(F)(F)F)c2)cc1N1Cc2cnc(Nc3cnn(C)c3)nc2N(C)C1=O [Compound 10, N-(4-Methyl-3-(1-methyl-7-((1-methyl-1H-pyrazol-4-yl)amino)-2-oxo-1,4-dihydropyrimido[4,5-d]pyrimidin-3(2H)-yl)phenyl)-3-(trifluoromethyl)benzamide]	2700 ± 668	68 ± 28	59 ± 7	280 ± 79	366 ± 152	51 ± 46	> 50	630 ± 104	193 ± 7	105 ± 34	50 ± 12	130 ± 9	275 ± 29	–
Cc1ccc(NC(=O)c2cccc(C(F)(F)F)c2)cc1N1Cc2cnc(Nc3ccn(C)n3)nc2N(C)C1=O [Compound 11, N-(4-Methyl-3-(1-methyl-7-((1-methyl-1H-pyrazol-3-yl)amino)-2-oxo-1,4-dihydropyrimido[4,5-d]pyrimidin-3(2H)-yl)phenyl)-3-(trifluoromethyl)benzamid]	7000 ± 1120	45 ± 16	103 ± 1	259 ± 126	355 ± 54	89 ± 47	> 50	1160 ± 330	185 ± 15	318 ± 10	108 ± 26	240 ± 42	286 ± 39	–
Cc1ccc(NC(=O)c2cccc(C(F)(F)F)c2)cc1N1Cc2cnc(Nc3ccc(N4CCCCC4)cc3)nc2N(C)C1=O [Compound 1, N-(4-Methyl-3-(1-methyl-2-oxo-7-((4-(piperidin-1-yl)phenyl)amino)-1,4-dihydropyrimido[4,5-d]pyrimidin-3(2H)-yl)phenyl)-3-(trifluoromethyl)benzamide]	> 50000	1240 ± 554	611 ± 65	–	1310 ± 54	1040 ± 400	> 50	> 50000	586 ± 91	2020 ± 56	1120 ± 290	1380 ± 96	4510 ± 873	–
CCN1CCC(n2cc(Nc3ncc4c(n3)N(C)C(=O)N(c3cc(NC(=O)c5cccc(C(F)(F)F)c5)ccc3C)C4)cn2)CC1 [Compound 13, N-(3-(7-((1-(1-Ethylpiperidin-4-yl)-1H-pyrazol-4-yl)amino)-1-methyl-2-oxo-1,4-dihydropyrimido[4,5-d]pyrimidin-3(2H)-yl)-4-methylphenyl)-3-(trifluoromethyl)benzamide]	690 ± 35	77 ± 27	36 ± 7	130 ± 28	164 ± 2	76 ± 26	16.2 ± 6.02	889 ± 61	114 ± 18	186 ± 22	55 ± 20	147 ± 31	269 ± 61	–
Cc1ccc(NC(=O)c2cccc(C(F)(F)F)c2)cc1N1Cc2cnc(Nc3ccc(N4CCOCC4)cc3)nc2N(C)C1=O [Compound 3, N-(4-Methyl-3-(1-methyl-7-((4-morpholinophenyl)amino)-2-oxo-1,4-dihydropyrimido[4,5-d]pyrimidin-3(2H)-yl)phenyl)-3-(trifluoromethyl)benzamide]	2220 ± 163	18 ± 6	80 ± 16	134 ± 45	227 ± 12	30 ± 8	> 50	1060 ± 55	120 ± 39	136 ± 11	49 ± 12	265 ± 4	382 ± 52	–
Cc1ccc(NC(=O)c2cccc(C(F)(F)F)c2)cc1N1Cc2cnc(Nc3ccc(N4CCC(O)CC4)cc3)nc2N(C)C1=O [Compound 2, N-(3-(7-((4-(4-Hydroxypiperidin-1-yl)phenyl)amino)-1-methyl-2-oxo-1,4-dihydropyrimido[4,5-d]pyrimidin-3(2H)-yl)-4-methylphenyl)-3-(trifluoromethyl)benzamide]	1690 ± 624	15 ± 9	101 ± 22	181 ± 42	143 ± 10	40 ± 20	20.2 ± 8.77	827 ± 142	116 ± 37	257 ± 129	90	201 ± 23	293 ± 50	–
COc1cc(N2CCOCC2)ccc1Nc1ncc2c(n1)N(C)C(=O)N(c1cc(NC(=O)c3cccc(C(F)(F)F)c3)ccc1C)C2 [Compound 7, N-(3-(7-((2-Methoxy-4-morpholinophenyl)amino)-1-methyl-2-oxo-1,4-dihydropyrimido[4,5-d]pyrimidin-3(2H)-yl)-4-methylphenyl)-3-(trifluoromethyl)benzamide]	17400 ± 4220	480 ± 275	606 ± 68	429 ± 80	733 ± 1	388 ± 45	> 50	3780 ± 1890	588 ± 72	1680 ± 589	620 ± 153	871 ± 141	1329 ± 5	–
